According to patent US8592421B2, “Cyclic bioisosters of purine system derivatives and a pharmaceutical composition based thereon” (priority 2003, dated 2013):
Marks after values point to notes of the source that are not given here.

Key:
[1] = system: adenosine-sensitive receptors of erythrocytes; test: Interaction with adenosine-sensitive receptors of erythrocytes (chemiluminescence of bound compound, adenosine competition); assay type: binding, mice of line BALB/c; details: incubation at 37° C. vs 4° C., 10^−7 to 10^−5 M
Procedure: The interaction of compounds 2, 15, 21, 37 according to the invention with adenosine-sensitive receptors of erythrocytes of female mice of line BALB/c of an age of 8-12 months was investigated.
The dependence of the chemiluminescence intensity of the compounds according to the invention in an alkaline solution of 0.1N NaOH was determined in the presence of hydrogen peroxide being an initiator of chemiluminescence. The chemiluminescence was studied using the <<LKB>> chemiluminometer.
The erythrocytes of peripheral blood of the mice at first were washed three times by a normal physiological solution with centrifuging and then diluted in the Henks solution without glucose by 10 volumes of distilled water immediately used in the experiment.
At the first stage of the experiments the washed erythrocytes were incubated at a temperature of 37° C. or at 4° C. with solutions of the compounds according to the invention at a concentration of 10^−7 to 10^−5 M for 5-30 minutes, then washed by a normal physiological solution with repeated centrifuging in the cold. The obtained suspension of erythrocytes with the bound compounds according to the invention was placed in 0.1N solution of NaOH with addition of hydrogen peroxide at a final concentration of 10^−7 M. The chemiluminescence intensity was measured. A suspension of erythrocytes without compounds according to the invention was used as a control medium.
At the second stage of the experiments the washed erythrocytes were incubated at a temperature of 37° C. with solutions of the compounds according to the invention at a concentration of 10^−11 to 10^−8 M during 5-30 minutes, then washed twice with a normal physiological solution by centrifuging in the cold, the obtained suspension was mixed with an adenosine solution at a concentration of 10^−6 to 10^−4 and incubated for 15 minutes, then washed twice with a normal physiological solution with centrifuging in the cold. The obtained suspension of erythrocytes with the compounds according to the invention was placed in 0.1N solution of NaOH with addition of hydrogen peroxide in the final concentration of 10^−7 M. The chemiluminescence intensity was measured.

[2] = system: plasma hemostasis; test: Prothrombin time after intravenous administration; assay type: in vivo, rabbit
Procedure: (§1) The static parameters of the blood and plasma coagulation (partial activated thromboplastin time, thrombin time, maximum coagulation activity (test for auto coagulation) were determined using the Behnk Electronic coagulometer (Germany). The operating principle of this instrument is based on the fact that the formed blood clot breaks the contacts of the pulse counter in the flask-pin circuit, said pin permanently oscillating in a vertical plane. The moment of formation of the clot is registered by stopping the stop watch hand.
(§2) The measurements were effected at a constant temperature of 37° C. maintained by a temperature control unit.
The method of its determination is based on estimation of the coagulation of citrate or oxalic blood plasma, when it is mixed with thromboplastin and a calcium chloride solution. Since under these conditions the time of formation of the clot depends on the content of II, VII, IX and X factors in the investigated plasma sample, now the test is called “thromboplastin time by Quick” or “activity thromboplastin complex”.
Citrate blood containing 1 part of citrate per 9 parts of native blood was centrifuged at 3000 rev/min for 10 minutes to obtain plasma deprived of thrombocytes.
Added into a test tube in a water bath were 0.1 ml of plasma and 0.1 ml of a thromboplastin solution.

[3] = system: plasma hemostasis; test: Thrombin time after intravenous administration; assay type: in vivo, rabbit
Procedure: The investigations were performed on 72 rabbits of the “Chinchilla” breed with a mass of 2.5±0.3 kg, who were administered which solutions of compounds 2, 15, 21, 37 in doses of 15, 30 and 60 mg/kg intravenously. The experiments included the thrombin-test (series No. 7300) and the coagulability-test (series No. 5000) purchased from the scientific-and-production association (SPA) “Renam”, thromboplastin (series No. 240600) and calcium chloride purchased from the SPA “MedioLab”
as §1, §2
The “thrombin time” characterizes the rate of transformation of fibrinogen into fibrin. It was determined by measuring the coagulation time of plasma deprived of thrombocytes under the effect of thrombin standardized by the control plasma.
0.2 ml of a thrombin solution was added to 0.2 ml of the test blood plasma of experimental animals, from whom the blood was taken 15, 30, 60 and 120 minutes after the intravenous administration of compounds 2, 15, 21, 37 according to the invention in doses of 15, 30, 60 mg/kg incubated for 1 minute at a temperature of 37° C. and the time of formation of clot T2 in seconds in a coagulometer of the Behnk Electronic Company (Germany).

**Q.** For `Nc1ccnc2c(=O)n([C@@H]3O[C@H](CO)[C@@H](O)[C@H]3O)[nH]c(=O)c12` [Compound 2, 4-amino-7-(β-D-ribofuranosile)pyrido[2,3-d]-6H-pyridazine-5,8-dione], which “dependence of the bond with erythrocytes on temperature” value [1] is on record?
**A.** does not depend on the temperature

**Q.** And the “prothrombin time, T” value ([2]; 15.0 mg/kg intravenously, after 15 minutes, control 11.8 ± 0.1)?
**A.** 11.7 ± 0.2 s

**Q.** What about the “prothrombin time, T” value ([2]; 15.0 mg/kg intravenously, after 30 minutes, control 11.8 ± 0.1) of the same compound?
**A.** 11.5 ± 0.2 s

**Q.** What about the “prothrombin time, T” value ([2]; 15.0 mg/kg intravenously, after 60 minutes, control 11.8 ± 0.1) of the same compound?
**A.** 11.4 ± 0.2 s

**Q.** What about the “prothrombin time, T” value ([2]; 15.0 mg/kg intravenously, after 120 minutes, control 11.8 ± 0.1) of the same compound?
**A.** 11.7 ± 0.1 s

**Q.** What about the “prothrombin time, T” value ([2]; 30.0 mg/kg intravenously, after 15 minutes, control 11.2 ± 0.1) of the same compound?
**A.** 11.1 ± 0.2 s

**Q.** What about the “prothrombin time, T” value ([2]; 30.0 mg/kg intravenously, after 30 minutes, control 11.2 ± 0.1) of the same compound?
**A.** 11.0 ± 0.1 s

**Q.** What about the “prothrombin time, T” value ([2]; 30.0 mg/kg intravenously, after 60 minutes, control 11.2 ± 0.1) of the same compound?
**A.** 11.3 ± 0.1 s

**Q.** What about the “prothrombin time, T” value ([2]; 30.0 mg/kg intravenously, after 120 minutes, control 11.2 ± 0.1) of the same compound?
**A.** 11.2 ± 0.2 s

**Q.** And the “prothrombin time, T” value ([2]; 60.0 mg/kg intravenously, after 15 minutes, control 12.0 ± 0.1)?
**A.** 12.0 ± 0.1 s

**Q.** What about the “prothrombin time, T” value ([2]; 60.0 mg/kg intravenously, after 30 minutes, control 12.0 ± 0.1) of the same compound?
**A.** 11.9 ± 0.2 s

**Q.** And the “prothrombin time, T” value ([2]; 60.0 mg/kg intravenously, after 60 minutes, control 12.0 ± 0.1)?
**A.** 12.1 ± 0.2 s

**Q.** And the “prothrombin time, T” value ([2]; 60.0 mg/kg intravenously, after 120 minutes, control 12.0 ± 0.1)?
**A.** 11.9 ± 0.1 s

**Q.** And the “effect on the prothrombin time index” value ([2]; doses of 15.0, 30.0, 60.0 mg/kg)?
**A.** have no effect on the prothrombin time index

**Q.** And the “thrombin time, T2” value ([3]; 15.0 mg/kg intravenously, after 15 minutes, control 15.8)?
**A.** 16.2* s

**Q.** And the “thrombin time, T2” value ([3]; 15.0 mg/kg intravenously, after 30 minutes, control 15.8)?
**A.** 17.0* s

**Q.** And the “thrombin time, T2” value ([3]; 15.0 mg/kg intravenously, after 60 minutes, control 15.8)?
**A.** 16.0* s

**Q.** What about the “thrombin time, T2” value ([3]; 15.0 mg/kg intravenously, after 120 minutes, control 15.8) of the same compound?
**A.** 15.3* s

**Q.** What about the “thrombin time, T2” value ([3]; 30.0 mg/kg intravenously, after 15 minutes, control 14.7) of the same compound?
**A.** 17.8* s

**Q.** What about the “thrombin time, T2” value ([3]; 30.0 mg/kg intravenously, after 30 minutes, control 14.7) of the same compound?
**A.** 18.4* s

**Q.** What about the “thrombin time, T2” value ([3]; 30.0 mg/kg intravenously, after 60 minutes, control 14.7) of the same compound?
**A.** 19.2* s

**Q.** What about the “thrombin time, T2” value ([3]; 30.0 mg/kg intravenously, after 120 minutes, control 14.7) of the same compound?
**A.** 15.3* s

**Q.** What about the “thrombin time, T2” value ([3]; 60.0 mg/kg intravenously, after 15 minutes, control 15.2) of the same compound?
**A.** 16.0* s

**Q.** What about the “thrombin time, T2” value ([3]; 60.0 mg/kg intravenously, after 30 minutes, control 15.2) of the same compound?
**A.** 16.9* s

**Q.** And the “thrombin time, T2” value ([3]; 60.0 mg/kg intravenously, after 60 minutes, control 15.2)?
**A.** 15.9* s

**Q.** What about the “thrombin time, T2” value ([3]; 60.0 mg/kg intravenously, after 120 minutes, control 15.2) of the same compound?
**A.** 15.3* s
